Assay results reported in US20050245397A1, “Use of nickel to correct growth disorders in plants” (priority 2004, published 2005).
Read-outs that look alike come from different tables or passages of the source.

Columns and labels:
[1] = system: severely mouse-eared 'Desirable' pecan trees; type: in vivo; conditions: October foliar spray till run-off, NiSO4.6H2O about 3.5 g/L or CuSO4.5H2O about 4 g/L with urea and surfactant, orchard transplants, rated following May, scale 1 = no symptoms to 10 = most severe
[2] = system: pecan trees exhibiting severe mouse-ear; type: in vivo; conditions: early April foliar spray at late parachute stage, treatments as in Example 8, orchard transplants, subsequent shoot growth, scale 1-10
[3] = system: 1-year-old 'Desirable' pecan seedlings potted in mouse-ear orchard soil; test: October foliar copper or nickel at 0-8X on potted greenhouse pecan seedlings, mouse-ear rated in spring; type: in vivo, pecan [Carya illinoinensis (Wangenh.) K. Koch]; conditions: autumn foliar copper 1X-8X, X = about 1.98 g copper sulfate per liter
pecans with mouse-ear = test: Inventors' orchard observations of soil or foliar copper, phosphorus, sulfur on mouse-ear; type: in vivo, pecan [Carya illinoinensis (Wangenh.) K. Koch]; conditions: for effect on mouse-ear, soil application of high amounts: 1st generation orchard site
[4] = system: pecan seedlings exhibiting severe nickel deficiency, i.e., mouse-ear; type: in vivo, pecan [Carya illinoinensis (Wangenh.) K. Koch]; conditions: foliar spray in the spring during bud break, tested 0-1000 ppm

## O.O.O.O.O.O=S(=O)([O-])[O-].[Cu+2] [Copper, CuSO4.5H2O]
[1]
  Mouse-ear Severity (Class): 7.6 a Class
[1]; listed as copper
  Mouse-ear Severity (Class): 7.6 Class
[2]
  Mouse-ear Severity (Class): 8.1 a Class
[2]; listed as copper
  Mouse-ear Severity (Class): about 8.1 Class
[3]
  effect on mouse-ear severity the following spring: failed to correct mouse-ear and actually increased severity of mouse-ear as the concentration of applied copper increased
Pecans with mouse-ear; 2nd generation site
  effect on mouse-ear, soil applied at time of transplanting: corrects mouse-ear on one 2nd generation site
Pecans with mouse-ear; in vivo
  effect on mouse-ear, foliar applications: little or no curative influence on mouse-ear severity
Pecans with mouse-ear; trees with mild to moderate mouse-ear on a 1st generation site
  effect on mouse-ear, topical application to the soil: largely cured of mouse-ear by the 3rd year

## [P] [phosphorus]
Pecans with mouse-ear
  effect on mouse-ear, soil application of high amounts: corrected mouse-ear symptoms three years after application

## S1SSSSSSS1 [sulfur]
Pecans with mouse-ear
  effect on mouse-ear, soil application of high amounts: corrected mouse-ear symptoms three years after application

## nickel lignosulfonate
[4]
  nickel concentration at which foliar application corrected mouse-ear / nickel deficiency: ≥ 10 ppm
